In US9078446B2, “Use of N-(tetrazol-4-yl)- or N-(triazol-3-yl)arylcarboxamides or their salts for controlling unwanted plants in areas of transgenic crop plants being tolerant to HPPD inhibitor herbicides” (BAYER INTELLECTUAL PROPERTY GMBH, priority 2011, dated 2015):

Columns and labels:
[1] = system: FMP37 (HPPD derived from Blepharisma japonicum); assay: Determination of HPPD activity in presence of HPPD inhibitor (percentage of inhibition); assay type: biochemical
Protocol: The HPPD activity was checked by the standard spectrophotmetric assay (method extensively described in WO 2009/144079)
Level of tolerance of HPPD proteins obtained from different organisms was determined according to the procedure as described in PCT/EP2010/070575.
Table E1: Determination of Percentage of Inhibition in Presence of 5.0×10^−6M of Compound “4-137” Compared to the Activity Measured in Absence of Compound No. “4-137” With HPPD Originated from Arabidopsis thaliana (AtHPPD), Mutated Pseudomonas fluorescens PfHPPD-G336W, Avena sativa (AvHPPD), FMP27 (Derived from Kordia algicida) and FMP37 (Derived from Blepharisma japonicum).

[2] = system: non-transformed tobacco plants (Wt); assay: Symptoms due to herbicide application on tobacco plants (damage classes 0-3); assay type: in vivo; conditions: 25 g Al/ha, one week after application
In short: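 Tobacco plants grown two weeks in single pots after transfer, then sprayed with herbicides at rates in g active ingredient/ha, 8 to 10 plants per group. Symptoms scored on a 0–3 scale: 0 none, 1 light and transient, 2 strong, 3 very strong damage.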

[3] = system: transgenic tobacco plants expressing tolerant HPPD enzymes; assay: Tolerance of tobacco plants expressing tolerant HPPD enzymes (all transgenes); assay type: in vivo
In short: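 Tobacco transformed via pBin19 with the HPPD gene under CaMV35S, fused to an N-terminal chloroplast transit peptide. T1 plants, potted at 3 weeks and grown 2 more weeks, sprayed with N-(tetrazol-4-yl)/N-(triazol-3-yl)arylcarboxamides (g AI/ha) on 8–10 plants from 1–3 events per transgene. Damage scored 0 (none) to 3 (very strong), versus non-transformed plants.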

[4] = system: soybean plants expressing Pseudomonas fluorescens G336W mutant, FMP 27 and FMP 37; assay: Tolerance to HPPD inhibitors of soybean plants expressing tolerant HPPD enzymes; assay type: in vivo; conditions: T1 soybean plants; one week after application
In short: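 T1 soybean lines carry chloroplast-targeted HPPD genes from Blepharisma japonicum or Kordia algicida under the CaMV35S promoter, with T0 events selected for tembotrione tolerance. T1 seedlings are raised singly in pots under standard conditions. Plants are sprayed two weeks later with N-(tetrazol-4-yl)- or N-(triazol-3-yl)arylcarboxamides.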

[5] = system: cotton plants expressing FMP 27 and FMP 37; assay: Tolerance to HPPD inhibitors of cotton plants expressing tolerant HPPD enzymes; assay type: in vivo; conditions: T1 cotton plants; one week after application
In short: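 Transgenic cotton expressed Blepharisma japonicum (FMP37) or Kordia algicida (FMP27) HPPD under CaMV35S with an N-terminal chloroplast transit peptide. T1 plants came from tembotrione-tolerant T0 events, were grown in single pots, and were sprayed at least 4 weeks later with N-(tetrazol-4-yl)- or N-(triazol-3-yl)arylcarboxamides.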

Cc1c(C(=O)Nc2nnnn2C)ccc(C(F)(F)F)c1S(C)(=O)=O [Compound 4-137]
Inhibition % ([1]; 5.0×10^−6M of compound, compared to activity in absence of compound, FMP37): 82% | tolerance/sensitivity of the HPPD to the inhibitor compared to Arabidopsis thaliana HPPD ([1]; FMP37 versus AtHPPD, identical experimental conditions): less sensitive | number of plants with Damage 0 (No damage) [2]: 0 | number of plants with Damage 1 (Light and transient damage) [2]: 0 | number of plants with Damage 2 (Strong damage) [2]: 0 | number of plants with Damage 3 (Very strong damage) [2]: 10 | tolerance of the transgenic tobacco plants (symptoms due to application of the herbicide) ([3]; T1 plants sprayed, evaluated one week after application): good tolerance | sensitivity of transgenic tobacco plants compared to wild type (wt) plants ([3]; all tested independent lines, agronomically relevant dose): less sensitive | tolerance of transgenic plants compared to the wild-type soybean plants [4]: superior tolerance | tolerance of transgenic plants compared to the wild-type cotton plants [5]: superior tolerance
